The values that follow come from patent US10660789B2, “1,4-dihydropyridine derivatives with HSP modulating activity” (Richter Gedeon NYRT., priority 2011, dated 2020).

In this experiment the test system is Hsp25 promoter. In words: Hsp25 promoter-GFP reporter in SHSY5Y cells, flow cytometry. In kind it is cell-based, human. The note with it: FIG. 2. Here is the method:
The Hsp co-inducing effect of the compounds on stress response was tested on B16 mouse melanoma and SHSY5Y human neuroblastoma cell lines stably transfected with Hsp promoter probing plasmids. This kind of promoter probing, using the promoter region of a given gene conjugated with fluorescent protein is used as a best and fastest test system for finding drugs which modulate the activity of the gene followed by the given promoter (Wyshocka et al., Mol. Cel. Biochem. 215:153-156, 2000).
Reporter plasmids, containing the Hsp70 and/or Hsp25 promoter conjugated to either YFP or GFP (yellow or green fluorescent protein), were stably transfected into the cells and the expression of YFP or GFP was followed by flow cytometry. Cells were either kept at 37° C. or exposed to heat shock at 42° C. for 1 hour followed by a 16 hour recovery period at 37° C. in the presence or absence of different concentrations of the test compound. After recovery the expression of YFP or GFP which is in straight correlation with the promoter activity of Hsp70 or Hsp27 genes was followed by measuring the fluorescence intensity of the cells by flow cytometry. Fluorescence intensity is in straight correlation with the amount of fluorescent protein (GFP or YFP) produced under the control of hsp promoter. The mean fluorescence intensity of YFP or GFP produced is shown as “Hsp promoter activity”.
The fluorescence intensity of GFP and YFP […].
Selectivity of the Hsp25 co-inducing activity of compound of Ex. 11 is shown on FIG. 3. […] The fluorescence intensity of GFP produced as a result of Hsp25 promoter activity was measured by flow cytometry.
Cells were homogenously distributed on 6-well plates in 1×10^5 cells/well density. B16-pHsp25-GFP and B16-pHsp70-YFP melanoma cells were grown in RPMI-1640 medium supplemented with 10% Fetal bovine serum (FBS), penicillin (200 units/ml), streptomycin (200 μg/ml) and 2 mM L-Glutamine. […] The changes in cells' fluorescence were detected using BD FACSCalibur flow cytometer.

Where a name gives a salt, the structure may show the parent alone.

Regarding `COC(=O)C1=C(CCN(C)C)N(C)C(CCN(C)C)=C(C(=O)OC)C1c1ccc(C(F)(F)F)cc1` [Example 23, Dimethyl 4-(4-trifuoromethylphenyl)-2,6-bis-(2-dimethylaminoethyl)-1-methyl-1,4-dihydropyridine-3,5-dicarboxylate dihydrochloride], the “effect on the expression of Hsp25” value is “no effect on the expression of Hsp25”.
